Assay results as given in patent US20090252674A1, “Tripodal Ligands with the Coordinating Motifs K2 -BH2 or K3 -BH3 Relevant for Biomedical Applications of Organometallic Complexes” (Mallinckrodt Inc., priority 2005, published 2009).

Assay: HPLC analysis of the 6a preparation at different intervals of time (stability under physiologic conditions)
Assay type: physicochemical
Conditions: PBS, pH 7.4
Experimental: In a nitrogen-purged glass vial, 100 μL of a 2.5×10^−2 M aqueous solution of ligand 1 were added to 400 μL (7.5 mCi) of the organometallic precursor fac−[^99mTc(OH2)3(CO)3]^+, and the mixture was incubated at room temperature for 30 min. After this time, complex 6a has been obtained in 90% yield, as checked by gradient HPLC analysis (from 100% aqueous 0.1% CF3COOH solution to 100% CH3CN) using a Nucleosil column (10:m, 250 mm×4 mm). The chemical identity of 6a was confirmed by comparing its HPLC chromatogram with the HPLC profile of the analogue Re complex (6) (Retention time: Re, 25.78 min; ^99mTc, 26.28 min). HPLC analysis of the preparation of 6a, at different intervals of time, has shown that 6a is stable under physiologic conditions (PBS, pH 7.4), at least for a period of 24 h.

- stable under physiologic conditions, period: ≥ 24 h
Substance: [^99mTc (κ^3-H3B(Tim^Me))(CO)3] [complex 6a]
